Measurements published in paper PMC10180054, “Design, Synthesis and Biological Evaluation of Novel Pleuromutilin Derivatives Containing 6-Chloro-1-R-1H-pyrazolo[3,4-d]pyrimidine-4-amino Side Chain” (Molecules, 2023).
Values after ≈ are worked out from the molar mass of the structure shown.

Experiments:
S. aureus AD3 = assay: MIC/MBC by broth dilution (CLSI); type: cell-based; conditions: Staphylococcus aureus, S. aureus AD3 (clinical strain)
Experimental: (§1) The in vitro antimicrobial activity of the pleuromutilin derivatives was assessed against MRSA ATCC 43300, S. aureus ATCC 29213, S. aureus 144 and S. aureus AD3 according to the Clinical and Laboratory Standards Institute (CLSI). Tiamulin was used as a positive control drug. The results were summarized as the minimum inhibitory concentration (MIC) and the minimum bactericidal concentration (MBC) in Table 1 and Table 2. In addition, MIC results for the pleuromutilin derivatives against four Gram-negative bacteria are supplied in Tables S2 and S3.
(§2) The MIC and MBC values of the synthesized novel pleuromutilin derivatives against MRSA ATCC 43300, S. aureus ATCC 29213, S. aureus 144 and S. aureus AD3 were measured. Tiamulin was used as a positive control drug. The MIC and MBC values were manipulated by broth dilution according to the Clinical and Laboratory Standards (CLSI). Each compound to be measured was dissolved in a solution of 95% deionized water, 2.5% dimethyl sulfoxide (DMSO) and 2.5% Tween-80 with a concentration of 1280 µg/mL. Subsequently, serial twofold dilutions were made in a concentration range from 64 µg/mL to 0.0625 µg/mL. The working bacterial suspension was inoculated into each well, which provided the final inoculum density of 5 × 10^5 CFU/mL. Three parallel experiments were performed for each compound.
(§3) Overall, 25 µL of the bacterial solution from the wells with no obvious bacterial growth was inoculated on MH agar plates. Then, the inoculated MH agar plates were further cultured at 37 °C for 24 h.

S. aureus ATCC 29213 = assay: MIC/MBC by broth dilution (CLSI); type: cell-based; conditions: Staphylococcus aureus, ATCC29213; for MBC: S. aureus ATCC 29213; for MIC: S. aureus ATCC 29213, broth dilution, 24 h, 37 °C
Experimental: as §1, §2, §3

S. aureus 144 = assay: MIC/MBC by broth dilution (CLSI); type: cell-based; conditions: Staphylococcus aureus; S. aureus 144 (clinical strain)
Experimental: as §1, §2, §3

MRSA ATCC 43300 = assay: MIC/MBC by broth dilution (CLSI); type: cell-based, Staphylococcus aureus; conditions: Staphylococcus aureus; for MBC: MRSA ATCC 43300, 99.9% of the bacteria killed; for MIC: MRSA ATCC 43300, broth dilution, 24 h, 37 °C, read-out: MIC
Experimental: as §1, §2, §3

| Compound | melting point [°C] | MBC (S. aureus AD3) [µg/mL] | MIC (S. aureus AD3) [µg/mL] | MBC (S. aureus ATCC 29213) [µg/mL] | MIC (S. aureus ATCC 29213) [µg/mL] | MBC (S. aureus 144) [µg/mL] | MIC (S. aureus 144) [µg/mL] | MBC (MRSA ATCC 43300) [µg/mL] | MIC (MRSA ATCC 43300) [µg/mL] | MBC (S. aureus AD3; 24 h) [µg/mL] | MIC (S. aureus AD3; 24 h) [µg/mL] |
| --- | --- | --- | --- | --- | --- | --- | --- | --- | --- | --- | --- |
| C=C[C@]1(C)C[C@@H](OC(=O)CNc2nc(Cl)nc3c2cnn3-c2cccc(C)c2)[C@]2(C)[C@H](C)CC[C@]3(CCC(=O)[C@H]32)[C@@H](C)[C@@H]1O [Compound 12b, 22-[(6-Chloro-1-(3-methylphenyl)-1H-pyrazolo[3,4-d]pyrimidine-4-yl)amino]-22-deoxypleuromutilin] | 97 to 99 | 16 (≈ 25.8 µM) | 4 (≈ 6.45 µM) | 32 (≈ 51.6 µM) | 8 (≈ 12.9 µM) | 32 (≈ 51.6 µM) | 8 (≈ 12.9 µM) | 32 (≈ 51.6 µM) | 8 (≈ 12.9 µM) | – | – |
| C=C[C@]1(C)C[C@@H](OC(=O)CNc2nc(Cl)nc3c2cnn3-c2ccc(C)cc2)[C@]2(C)[C@H](C)CC[C@]3(CCC(=O)[C@H]32)[C@@H](C)[C@@H]1O [Compound 13b, 22-[(6-Chloro-1-(4-methylphenyl)-1H-pyrazolo[3,4-d]pyrimidine-4-yl)amino]-22-deoxypleuromutilin] | – | > 64 | 16 (≈ 25.8 µM) | > 64 | 32 (≈ 51.6 µM) | > 64 | 32 (≈ 51.6 µM) | 32 (≈ 51.6 µM) | 16 (≈ 25.8 µM) | – | – |
| C=C[C@]1(C)C[C@@H](OC(=O)CSc2ccc(Nc3nc(Cl)nc4c3cnn4-c3ccc(C)cc3)cc2)[C@]2(C)[C@H](C)CC[C@]3(CCC(=O)[C@H]32)[C@@H](C)[C@@H]1O [Compound 13c, 22-[4-(6-Chloro-1-(4-methylphenyl)-1H-pyrazolo[3,4-d]pyrimidine-4-yl)amino-phenylsulfanyl]-22-deoxypleuromutilin] | 101 to 105 | – | – | > 64 | 8 (≈ 11 µM) | > 64 | 16 (≈ 22 µM) | > 64 | 8 (≈ 11 µM) | > 64 | 4 (≈ 5.49 µM) |
| C=C[C@]1(C)C[C@@H](OC(=O)CNc2nc(Cl)nc3c2cnn3-c2ccc(C)c(C)c2)[C@]2(C)[C@H](C)CC[C@]3(CCC(=O)[C@H]32)[C@@H](C)[C@@H]1O [Compound 14b, 22-[(6-Chloro-1-(3,4-dimethylphenyl)-1H-pyrazolo[3,4-d]pyrimidine-4-yl)amino]-22-deoxypleuromutilin] | 99 to 103 | > 64 | 16 (≈ 25.2 µM) | > 64 | 16 (≈ 25.2 µM) | > 64 | 16 (≈ 25.2 µM) | > 64 | 16 (≈ 25.2 µM) | – | – |
| C=C[C@]1(C)C[C@@H](OC(=O)CSc2ccc(Nc3nc(Cl)nc4c3cnn4-c3ccc(C)c(C)c3)cc2)[C@]2(C)[C@H](C)CC[C@]3(CCC(=O)[C@H]32)[C@@H](C)[C@@H]1O [Compound 14c, 22-[4-(6-Chloro-1-(3,4-dimethylphenyl)-1H-pyrazolo[3,4-d]pyrimidine-4-yl)amino-Phenylsulfanyl]-22-deoxypleuromutilin] | 103 to 105 | – | > 64 | – | > 64 | – | > 64 | – | > 64 | – | – |
| C=C[C@]1(C)C[C@@H](OC(=O)CNc2nc(Cl)nc3c2cnn3-c2cc(C)cc(C)c2)[C@]2(C)[C@H](C)CC[C@]3(CCC(=O)[C@H]32)[C@@H](C)[C@@H]1O [Compound 15b, 22-[(6-Chloro-1-(3,5-dimethylphenyl)-1H-pyrazolo[3,4-d]pyrimidine-4-yl)amino]-22-deoxypleuromutilin] | 95 to 100 | – | > 64 | – | > 64 | – | > 64 | – | > 64 | – | – |
| C=C[C@]1(C)C[C@@H](OC(=O)CSc2ccc(Nc3nc(Cl)nc4c3cnn4-c3cc(C)cc(C)c3)cc2)[C@]2(C)[C@H](C)CC[C@]3(CCC(=O)[C@H]32)[C@@H](C)[C@@H]1O [Compound 15c, 22-[4-(6-Chloro-1-(3,5-dimethylphenyl)-1H-pyrazolo[3,4-d]pyrimidine-4-yl)amino-Phenylsulfanyl]-22-deoxypleuromutilin] | 92 to 95 | – | > 64 | – | > 64 | – | > 64 | – | > 64 | – | – |
| C=C[C@]1(C)C[C@@H](OC(=O)CNc2nc(Cl)nc3c2cnn3-c2ccc(CC)cc2)[C@]2(C)[C@H](C)CC[C@]3(CCC(=O)[C@H]32)[C@@H](C)[C@@H]1O [Compound 16b, 22-[(6-Chloro-1-(4-ethylphenyl)-1H-pyrazolo[3,4-d]pyrimidine-4-yl)amino]-22-deoxypleuromutilin] | 101 to 103 | > 64 | 16 (≈ 25.2 µM) | > 64 | 32 (≈ 50.5 µM) | > 64 | 32 (≈ 50.5 µM) | > 64 | 32 (≈ 50.5 µM) | – | – |
| C=C[C@]1(C)C[C@@H](OC(=O)CSc2ccc(Nc3nc(Cl)nc4c3cnn4-c3ccc(CC)cc3)cc2)[C@]2(C)[C@H](C)CC[C@]3(CCC(=O)[C@H]32)[C@@H](C)[C@@H]1O [Compound 16c, 22-[4-(6-Chloro-1-(4-ethylphenyl)-1H-pyrazolo[3,4-d]pyrimidine-4-yl)amino-Phenylsulfanyl]-22-deoxypleuromutilin] | 97 to 99 | – | > 64 | – | > 64 | – | > 64 | – | > 64 | – | – |
| C=C[C@]1(C)C[C@@H](OC(=O)CNc2nc(Cl)nc3c2cnn3-c2cccc(OC)c2)[C@]2(C)[C@H](C)CC[C@]3(CCC(=O)[C@H]32)[C@@H](C)[C@@H]1O [Compound 17b, 22-[(6-Chloro-1-(3-methoxyphenyl)-1H-pyrazolo[3,4-d]pyrimidine-4-yl)amino]-22-deoxypleuromutilin] | 99 to 104 | – | > 64 | – | > 64 | – | > 64 | – | > 64 | – | – |
| C=C[C@]1(C)C[C@@H](OC(=O)CSc2ccc(Nc3nc(Cl)nc4c3cnn4-c3cccc(OC)c3)cc2)[C@]2(C)[C@H](C)CC[C@]3(CCC(=O)[C@H]32)[C@@H](C)[C@@H]1O [Compound 17c, 22-[4-(6-Chloro-1-(3-methoxyphenyl)-1H-pyrazolo[3,4-d]pyrimidine-4-yl)amino-Phenylsulfanyl]-22-deoxypleuromutilin] | 97 to 102 | – | > 64 | – | > 64 | – | > 64 | – | > 64 | – | – |
| C=C[C@]1(C)C[C@@H](OC(=O)CNc2nc(Cl)nc3c2cnn3-c2ccccc2F)[C@]2(C)[C@H](C)CC[C@]3(CCC(=O)[C@H]32)[C@@H](C)[C@@H]1O [Compound 18b, 22-[(6-Chloro-1-(2-fluorophenyl)-1H-pyrazolo[3,4-d]pyrimidine-4-yl)amino]-22-deoxypleuromutilin] | 107 to 110 | – | > 64 | – | > 64 | – | > 64 | – | > 64 | – | – |
| C=C[C@]1(C)C[C@@H](OC(=O)CNc2nc(Cl)nc3c2cnn3-c2ccc(OC(F)(F)F)cc2)[C@]2(C)[C@H](C)CC[C@]3(CCC(=O)[C@H]32)[C@@H](C)[C@@H]1O [Compound 23b, 22-[(6-Chloro-1-(4-(trifluoromethoxy)Phenyl)-1H-pyrazolo[3,4-d]pyrimidine-4-yl)amino]-22-deoxypleuromutilin] | – | – | > 64 | – | > 64 | – | > 64 | – | > 64 | – | – |
| C=CC1(C)CC(OC(=O)CSc2ccc(N)cc2)C2(C)C(C)CCC3(CCC(=O)C32)C(C)C1O (stereo not drawn) [Compound 32, 22-(4-Amino-phenylsulfanyl)deoxypleuromutilin] | – | – | – | – | 0.0015 (≈ 0.00309 µM) | – | 0.003 (≈ 0.00618 µM) | – | 0.0015 (≈ 0.00309 µM) | – | 0.0015 (≈ 0.00309 µM) |
